In brackets after ≈: the same amount, converted by molar mass.
What was measured:
Bacillus subtilis [1] = experiment: Genotoxicity in wild type Bacillus subtilis H17 assessed as growth inhibition; assay type: toxicity, organism-based; conditions: in vivo
Bacillus subtilis [2] = experiment: Genotoxicity in recombination-deficient Bacillus subtilis M45 assessed as growth inhibition; assay type: toxicity, organism-based; conditions: in vivo
[3] = Ratio of CR50 for wild type Bacillus subtilis H17 to CR50 for recombination-deficient Bacillus subtilis M45; assay type: ADME, organism-based

Compound	MIC (Bacillus subtilis [1])	MIC (Bacillus subtilis [2])	selectivity ratio [3]
CCOc1ccc(Cc2nc3cc([N+](=O)[O-])ccc3o2)cc1	500 µg/mL (≈ 1680 µM)	500 µg/mL	1.27
Nc1ccc(-c2nc3cc(Cl)ccc3o2)cc1	2000 µg/mL (≈ 8170 µM)	2000 µg/mL	1
O=C(Nc1ccc2oc(-c3ccccc3)nc2c1)c1ccc(F)cc1	1000 µg/mL (≈ 3010 µM)	500 µg/mL	1.6
CNc1ccc(-c2nc3ccccc3o2)cc1	1000 µg/mL (≈ 4460 µM)	500 µg/mL	1.5
Nc1ccc2oc(Cc3ccc(F)cc3)nc2c1	500 µg/mL (≈ 2060 µM)	500 µg/mL	1.25
O=[N+]([O-])c1cc[n+]([O-])c2ccccc12 [4-NITROQUINOLINE-1-OXIDE]	1000 µg/mL (≈ 5260 µM)	60 µg/mL	0.69
Cc1ccc2nc(-c3ccccc3Cl)oc2c1	125 µg/mL (≈ 513 µM)	60 µg/mL	1.85
Cc1ccc2[nH]c(Cc3ccc(Br)cc3)nc2c1	30 µg/mL (≈ 99.6 µM)	125 µg/mL	0.49
Clc1ccc2[nH]c(CC3CCCCC3)nc2c1	1000 µg/mL (≈ 4020 µM)	500 µg/mL	0.93
O=[N+]([O-])c1cc2oc(C3CCCCC3)nc2cc1Cl	500 µg/mL (≈ 1780 µM)	500 µg/mL	1.25
Nc1ccc2oc(-c3ccc(Br)cc3)nc2c1	1000 µg/mL (≈ 3460 µM)	1000 µg/mL	1.05
Cc1ccc(Cc2nc3cc(N)ccc3o2)cc1	500 µg/mL (≈ 2100 µM)	500 µg/mL	1.74
Clc1ccc(OCc2nc3cc(Cl)ccc3o2)cc1	500 µg/mL (≈ 1700 µM)	500 µg/mL	1
O=C(Cc1ccc(F)cc1)Nc1ccc2oc(Cc3ccccc3)nc2c1	500 µg/mL (≈ 1390 µM)	500 µg/mL	0.58
Cc1ccc2oc(-c3ccccc3[N+](=O)[O-])nc2c1	500 µg/mL (≈ 1970 µM)	500 µg/mL	0.96
O=[N+]([O-])c1ccc2oc(-c3ccccc3)nc2c1	500 µg/mL (≈ 2080 µM)	500 µg/mL	1.07
Clc1ccc2oc(Cc3ccc(Br)cc3)nc2c1	1000 µg/mL (≈ 3100 µM)	1000 µg/mL	1.05
Cc1ccc2nc(COc3ccccc3)oc2c1	1000 µg/mL (≈ 4180 µM)	1000 µg/mL	0.93
CCc1ccc(-c2nc3cc(NC(=O)Cc4ccc(Br)cc4)ccc3o2)cc1	500 µg/mL (≈ 1150 µM)	500 µg/mL	0.95
